Data on five compounds can be found in patent US6849639B2, “Integrin inhibitors and their methods of use” (Amgen Inc., priority 1999, dated 2005).

Structures are written as SMILES. Counter-ions that a name gives are not always drawn.

Consider `O=C(O)CC(NC(=O)C1CC(=O)N(c2cccc(NC(=S)NCc3ccccc3)c2)C1)c1cccnc1` (centres unmarked) (as salt: sodium) [Example 20, 3-({5-oxo-1-(3-({(benzylamino)thioxomethyl}amino)phenyl)pyrrolidin-3-yl}carbonylamino)-3-(3-pyridyl)propanoic acid, sodium salt], for which the melting point is 230 °C (dec.).

For `O=C(O)CC(NC(=O)C1CC(=O)N(c2cccc(NC(=S)NCc3ccc(F)cc3)c2)C1)c1cccnc1` (centres unmarked) (as salt: sodium) [Example 21, 3-((1-{3-(({((4-fluorophenyl)methyl)amino}thioxomethyl)amino)phenyl}-5-oxopyrrolidin-3-yl)carbonylamino)-3-(3-pyridyl)propanoic acid, sodium salt], the melting point was 230 °C (dec.).

For `O=C(O)CC(NC(=O)C1CC(=O)N(c2cccc(NC(=S)NCc3ccco3)c2)C1)c1cccnc1` (centres unmarked) (as salt: sodium) [Example 22, 3-({1-(3-({((2-furylmethyl)amino)thioxomethyl}amino)phenyl)-5-oxopyrrolidin-3-yl}carbonylamino)-3-(3-pyridyl)propanoic acid, sodium salt], the melting point is 240 °C (dec.).

Turning to `CC(C)CCNC(=S)Nc1cccc(N2CC(C(=O)NC(CC(=O)O)c3cccnc3)CC2=O)c1` (centres unmarked) (as salt: sodium) [Example 23, 3-({1-(3-({((3-methylbutyl)amino)thiooxomethyl}amino)phenyl)-5-oxopyrroidin-3-yl}carbonylamino)-3-(3-pyridyl)propanoic acid, sodium salt], the melting point is 250 °C (dec.).

For the compound `CCCCNC(=S)Nc1cccc(N2CC(C(=O)NC(CC(=O)O)c3cccnc3)CC2=O)c1` (centres unmarked) (as salt: sodium) [Example 24, 3-{(1-(3-{((butylamino)thioxomethyl)amino}phenyl)-5-oxopyrrolidin-3-yl)carbonylamino}-3-(3-pyridyl)propanoic acid, sodium salt], the melting point is 235 °C (dec.).

The melting point is the temperature, or range, at which the solid turns liquid.
